By EC50 is commonly meant the concentration giving half of the maximal effect. Read a low EC50 as higher potency in that assay.

human GPR119, sequence (Q8TDV5 whole entry): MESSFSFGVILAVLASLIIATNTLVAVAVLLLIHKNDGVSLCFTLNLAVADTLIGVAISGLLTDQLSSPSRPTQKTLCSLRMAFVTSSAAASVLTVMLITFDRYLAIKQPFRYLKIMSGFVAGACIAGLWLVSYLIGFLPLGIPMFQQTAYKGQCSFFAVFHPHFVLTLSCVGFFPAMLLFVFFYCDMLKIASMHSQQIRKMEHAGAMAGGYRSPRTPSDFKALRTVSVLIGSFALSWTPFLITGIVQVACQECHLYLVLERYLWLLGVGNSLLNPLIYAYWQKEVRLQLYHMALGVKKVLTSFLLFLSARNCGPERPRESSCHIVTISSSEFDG

This test deals with human GPR119 (Homo sapiens (Human), UniProt Q8TDV5). As to the kind of experiment: AlphaScreen cAMP assay in Min-6/hGPR119 cells (GPR119 activation, intracellular cAMP). The conditions noted are these: MIN6 cells stably transfected with human GPR119; 45 minutes' incubation at RT; AlphaScreen cAMP Assay Kit. The format is cell-based. As to the method:
The compounds of formula I according to the invention are GPR119 agonists. The effect of the compounds on the activation of GPR119 and on the stimulation of intracellular cAMP concentration is determined using the AlphaScreen cAMP Assay Kit (Cat. No. #6760625R) made by PerkinElmer.
MIN6 cells [Miyazaki J et al. Endocrinology. 1990 July; 127(1):126-32] were stably transfected with an expression vector for human GPR119 cDNA (Acc. No. NP_848566). Min-6/hGPR119 cells are cultured in DMEM, 10% FBS, 50 μM β-mercaptoethanol, 0.3 mg/mL Geniticin, 2 mM GlutaMAX at 37° C. 5% CO2. For the assay, the cells are placed in Optiplates (white, 384-well, 160W-barcoded, TC, sterile with lid, Cat. No. #6007688 (Perkin Elmer); 10000 cells/well; 50 μl). The plates covered with lids are then incubated for 24 hours at 37° C./5% CO2.
After the medium has been sucked out of the wells completely, 10 μl of the test compound are added, the compounds are diluted beforehand with stimulating buffer (140 mM NaCl, 3.6 mM KCl, 0.5 mM NaH2PO4, 0.5 mM MgSO4, 1.5 mM CaCl2, 10 mM Hepes, 5 mM NaHCO3; pH 7.4. 0.5 mM IBMX and 0.1% BSA, the final DMSO concentration is 1%). After 45 minutes' incubation at RT, the cAMP concentrations are determined using the AlphaScreen cAMP Assay Kit (Cat. No. #6760625R from PerkinElmer).
For orientation: Bead proximity is the source of the signal in Alpha formats.
Take `CC[C@@H]1C(=O)NN=C(c2ccc3nc(-c4ccccc4)oc3c2)[C@H]1C` (relative stereo) [Example 126, trans-4-ethyl-5-methyl-6-(2-phenyl-benzoxazol-6-yl)-4,5-dihydro-2H-pyridazin-3-one]: the EC50 is 306 nM. This counts as sub-micromolar.
With `CCC[C@@H]1C(=O)NN=C(c2ccc3nc(-c4ccccc4)oc3c2)[C@H]1C` (relative stereo) [Example 128, trans-5-methyl-6-(2-phenyl-benzoxazol-6-yl)-4-propyl-4,5-dihydro-2H-pyridazin-3-one] the figure was 56 nM; with `CCC[C@H]1C(=O)NN=C(c2ccc3nc(-c4ccccc4)oc3c2)[C@H]1C` (relative stereo) [Example 129, cis-5-methyl-6-(2-phenyl-benzoxazol-6-yl)-4-propyl-4,5-dihydro-2H-pyridazin-3-one], 6720 nM.
With `CC[C@@H]1C(c2ccc3nc(-c4ccccc4)oc3c2)=NNC(=O)[C@H]1C` (relative stereo) [Example 145, trans-5-ethyl-4-methyl-6-(2-phenyl-benzoxazol-6-yl)-4,5-dihydro-2H-pyridazin-3-one] the figure was 209 nM; with `CCC[C@H]1C(=O)NN=C(c2ccc3nc(-c4ccc(OCCN(C(C)C)C(C)C)cc4)oc3c2)[C@H]1C` (relative stereo) [Example 169, cis-6-{2-[4-(2-diisopropylamino-ethoxy)-phenyl]-benzoxazol-6-yl}-5-methyl-4-propyl-4,5-dihydro-2H-pyridazin-3-one], 1040 nM.
With `CCC[C@@H]1C(=O)NN=C(c2ccc3nc(-c4ccc(OCCN(C(C)C)C(C)C)cc4)oc3c2)[C@H]1C` (relative stereo) [Example 170, trans-6-{2-[4-(2-diisopropylamino-ethoxy)-phenyl]-benzoxazol-6-yl}-5-methyl-4-propyl-4,5-dihydro-2H-pyridazin-3-one] the figure was 53 nM.
Compound `CCC[C@@H]1C(=O)NN=C(c2ccc3nc(-c4ccc(OC(C)C)cc4)oc3c2)[C@H]1C` (relative stereo) [Example 171, trans-6-[2-(4-isopropoxy-phenyl)-benzoxazol-6-yl]-5-methyl-4-propyl-4,5-dihydro-2H-pyridazin-3-one] came in with a 50% effective concentration (EC50) of 37 nM.
Regarding `CCC[C@@H]1C(=O)NN=C(c2ccc3nc(-c4ccc(OCCCN5CCCCC5)cc4)oc3c2)[C@H]1C` (relative stereo) [Example 172, trans-5-methyl-6-{2-[4-(3-piperidin-1-yl-propoxy)-phenyl]-benzoxazol-6-yl}-4-propyl-4,5-dihydro-2H-pyridazin-3-one], the midpoint of the response, the EC50, lay at 755 nM.
Regarding `CCC[C@@H]1C(=O)NN=C(c2ccc3nc(-c4ccc(OC)cc4)oc3c2)[C@H]1C` (relative stereo) [Example 174, trans-6-[2-(4-methoxy-phenyl)-benzoxazol-6-yl]-5-methyl-4-propyl-4,5-dihydro-2H-pyridazin-3-one], the EC50 was found to be 92 nM. Compared with the last compound, the EC50 is about 8.2-fold lower.
The same measure for `CC[C@H]1C(c2ccc3nc(-c4ccc(OC(C)C)cc4)oc3c2)=NNC(=O)[C@@H]1C` (relative stereo) [Example 178, trans-5-ethyl-6-[2-(4-isopropoxy-phenyl)-benzoxazol-6-yl]-4-methyl-4,5-dihydro-2H-pyridazin-3-one]: 108 nM.
With `CC[C@@H]1C(c2ccc3nc(-c4ccc(OC(C)C)cc4)oc3c2)=NNC(=O)[C@@H]1C` (relative stereo) [Example 179, cis-5-ethyl-6-[2-(4-isopropoxy-phenyl)-benzoxazol-6-yl]-4-methyl-4,5-dihydro-2H-pyridazin-3-one] the figure was 3840 nM.
Consider `CCC[C@H]1C(=O)NN=C(c2ccc3nc(-c4ccc(F)cc4)oc3c2)[C@@H]1C` (relative stereo) [Example 182, trans-6-[2-(4-fluoro-phenyl)-benzoxazol-6-yl]-5-methyl-4-propyl-4,5-dihydro-2H-pyridazin-3-one], for which the EC50 came out at 116 nM.
The same measure for `CCC[C@H]1C(=O)NN=C(c2ccc3nc(-c4cccs4)oc3c2)[C@@H]1C` (relative stereo) [Example 183, trans-5-methyl-4-propyl-6-(2-thiophen-2-yl-benzoxazol-6-yl)-4,5-dihydro-2H-pyridazin-3-one]: 134 nM.
With `CCC[C@H]1C(=O)NN=C(c2ccc3nc(-c4ccc(C)s4)oc3c2)[C@@H]1C` (relative stereo) [Example 184, trans-5-methyl-6-[2-(5-methyl-thiophen-2-yl)-benzoxazol-6-yl]-4-propyl-4,5-dihydro-2H-pyridazin-3-one] the figure was 53 nM; with `CCC[C@H]1C(=O)NN=C(c2ccc3nc(-c4ccc(Cl)cc4)oc3c2)[C@@H]1C` (relative stereo) [Example 185, trans-6-[2-(4-chloro-phenyl)-benzoxazol-6-yl]-5-methyl-4-propyl-4,5-dihydro-2H-pyridazin-3-one], 142 nM.
The same measure for `CCC[C@H]1C(=O)NN=C(c2ccc3nc(-c4cc(C)cs4)oc3c2)[C@@H]1C` (relative stereo) [Example 186, trans-5-methyl-6-[2-(4-methyl-thiophen-2-yl)-benzoxazol-6-yl]-4-propyl-4,5-dihydro-2H-pyridazin-3-one]: 88 nM; for `CCC[C@H]1C(=O)NN=C(c2ccc3nc(-c4ccsc4)oc3c2)[C@@H]1C` (relative stereo) [Example 187, trans-5-methyl-4-propyl-6-(2-thiophen-3-yl-benzoxazol-6-yl)-4,5-dihydro-2H-pyridazin-3-one]: 173 nM; for `CCC[C@H]1C(=O)NN=C(c2ccc3nc(-c4cc(C)oc4C)oc3c2)[C@@H]1C` (relative stereo) [Example 189, trans-6-[2-(2,5-dimethyl-furan-3-yl)-benzoxazol-6-yl]-5-methyl-4-propyl-4,5-dihydro-2H-pyridazin-3-one]: 127 nM.
The compound `CCCC[C@@H]1C(=O)NN=C(c2ccc3nc(-c4ccccc4)oc3c2)[C@H]1C` (relative stereo) [Example 197, trans-4-butyl-5-methyl-6-(2-phenyl-benzoxazol-6-yl)-4,5-dihydro-2H-pyridazin-3-one] came in with an EC50 of 1110 nM.
The same measure for `C=CC[C@H]1C(=O)NN=C(c2ccc3nc(-c4ccccc4)oc3c2)[C@H]1C` (relative stereo) [Example 198, cis-4-allyl-5-methyl-6-(2-phenyl-benzoxazol-6-yl)-4,5-dihydro-2H-pyridazin-3-one]: 896 nM; for `CCC[C@H]1C(=O)NN=C(c2ccc3nc(-c4ccc(OCc5ccccc5)cc4)oc3c2)[C@H]1C` (relative stereo) [Example 199, cis-6-[2-(4-benzoxy-phenyl)-benzoxazol-6-yl]-5-methyl-4-propyl-4,5-dihydro-2H-pyridazin-3-one]: 832 nM; for `CCC[C@@H]1C(=O)NN=C(c2ccc3nc(-c4ccc(OCc5ccccc5)cc4)oc3c2)[C@H]1C` (relative stereo) [Example 200, trans-6-[2-(4-benzoxy-phenyl)-benzoxazol-6-yl]-5-methyl-4-propyl-4,5-dihydro-2H-pyridazin-3-one]: 52 nM.
With `CCC1CC(=O)NN=C1c1ccc2nc(-c3ccc(O[C@@H]4CCCC[C@H]4N(CC)CC)cc3)oc2c1` (relative stereo) [Example 224, 6-{2-[4-(trans-2-diethylamino-cyclohexyloxy)-phenyl]-benzoxazol-6-yl}-5-ethyl-4,5-dihydro-2H-pyridazin-3-one] the figure was 319 nM; with `CCC1CC(=O)NN=C1c1ccc2nc(-c3ccc(O[C@H]4CCC[C@@H]4N4CCCCC4)cc3)oc2c1` (relative stereo) [Example 225, 5-ethyl-6-{2-[4-(trans-2-piperidin-1-yl-cyclopentyloxy)-phenyl]-benzoxazol-6-yl}-4,5-dihydro-2H-pyridazin-3-one], 231 nM; with `CCC[C@H]1C(=O)NN=C(c2ccc3nc(-c4cccn4C)oc3c2)[C@@H]1C` (relative stereo) [Example 252, Trans-5-methyl-6-[2-(1-methyl-1H-pyrrol-2-yl)-benzoxazol-6-yl]-4-propyl-4,5-dihydro-2H-pyridazin-3-one], 110 nM.
With `CCC1OC(=O)NN=C1c1ccc2nc(-c3ccccc3)oc2c1` (stereo in doubt) [Example 79, (S)-6-ethyl-5-(2-phenyl-benzoxazol-6-yl)-3,6-dihydro-[1,3,4]oxadiazin-2-one] the figure was 41 nM; with `CCC1OC(=O)NN=C1c1ccc2nc(-c3ccccc3)oc2c1` (stereo in doubt) [Example 80, (R)-6-ethyl-5-(2-phenyl-benzoxazol-6-yl)-3,6-dihydro-[1,3,4]oxadiazin-2-one], 615 nM; with `CCC[C@@H]1C(=O)NN=C(c2ccc3nc(-c4ccc(OCCN5CCCCC5)cc4)oc3c2)[C@H]1C` (stereo in doubt) [Example 173, trans-5-methyl-6-{2-[4-(3-piperidin-1-yl-ethoxy)-phenyl]-benzoxazol-6-yl}-4-propyl-4,5-dihydro-2H-pyridazin-3-one], 218 nM.

The values above are taken from patent publication US8772323B2, “Benzoxazole- and tetrahydrobenzoxazole-substituted pyridazinones as GPR119 agonists” (Boehringer Ingelheim International GmbH, priority 2010, dated 2014).
